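All cell lines were grown in 96-well plates and treated with compound for 48 hours. Abbreviation: GI50, concentration required for 50% inhibition of growth. At the TGI there is no net growth.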
What was measured:
Assay in all cases: growth of human tumour cells (NCI), 48 h
IGROV1 ovarian = test system: IGROV1 ovarian
K-562 leukemia = test system: K-562 leukemia
SF-539 CNS = test system: SF-539 CNS
NCI-H522 lung = test system: NCI-H522 lung
NCI-H23 lung = test system: NCI-H23 lung
786-0 renal = test system: 786-0 renal
SK-MEL-28 melanoma = test system: SK-MEL-28 melanoma
HCC-2998 colon = test system: HCC-2998 colon
RXF 393 renal = test system: RXF 393 renal
DMS 114 small cell lung = test system: DMS 114 small cell lung
CCRF-CEM leukemia = test system: CCRF-CEM leukemia
OVCAR-4 ovarian = test system: OVCAR-4 ovarian
SW-620 colon = test system: SW-620 colon
MALME-3M melanoma = test system: MALME-3M melanoma
A498 renal = test system: A498 renal
MOLT-4 leukemia = test system: MOLT-4 leukemia
HCT-116 colon = test system: HCT-116 colon
NCI-H460 lung = test system: NCI-H460 lung
SNB-75 CNS = test system: SNB-75 CNS
SK-MEL-2 melanoma = test system: SK-MEL-2 melanoma
HT29 colon = test system: HT29 colon
HOP-62 NSCLC = test system: HOP-62 NSCLC
CAKI-1 renal = test system: CAKI-1 renal
SF-268 CNS = test system: SF-268 CNS
UACC-257 melanoma = test system: UACC-257 melanoma
KM12 colon = test system: KM12 colon
UO-31 renal = test system: UO-31 renal
M19-MEL melanoma = test system: M19-MEL melanoma
OVCAR-5 ovarian = test system: OVCAR-5 ovarian
SF-295 CNS = test system: SF-295 CNS
OVCAR-8 ovarian = test system: OVCAR-8 ovarian
ACHN renal = test system: ACHN renal
UACC-62 melanoma = test system: UACC-62 melanoma
M14 melanoma = test system: M14 melanoma
TK-10 renal = test system: TK-10 renal
A549 NSCLC = test system: A549 NSCLC
SNB-19 CNS = test system: SNB-19 CNS
SR leukemia = test system: SR leukemia
SK-OV-3 ovarian = test system: SK-OV-3 ovarian
HOP-92 NSCLC = test system: HOP-92 NSCLC
U251 CNS = test system: U251 CNS
SK-MEL-5 melanoma = test system: SK-MEL-5 melanoma
DMS 273 small cell lung = test system: DMS 273 small cell lung
DLD-1 colon = test system: DLD-1 colon
LXFL 529 NSCLC = test system: LXFL 529 NSCLC
KM20L2 colon = test system: KM20L2 colon
SN12C renal = test system: SN12C renal
EKVX NSCLC = test system: EKVX NSCLC
NCI-H226 lung = test system: NCI-H226 lung
SNB-78 CNS = test system: SNB-78 CNS
XF 498 CNS = test system: XF 498 CNS
RXF-631 renal = test system: RXF-631 renal
HOP-18 NSCLC = test system: HOP-18 NSCLC
COLO 205 colon = test system: COLO 205 colon
HL-60(TB) leukemia = test system: HL-60(TB) leukemia
HCT-15 colon = test system: HCT-15 colon
OVCAR-3 ovarian = test system: OVCAR-3 ovarian
RPMI-8226 leukemia = test system: RPMI-8226 leukemia
LOX IMVI melanoma = test system: LOX IMVI melanoma

c1ccc2c(c1)[nH]c1c2nc2ncccn21
TGI (IGROV1 ovarian): > 100 µM
TGI (K-562 leukemia): > 100 µM
TGI (SF-539 CNS): > 100 µM
TGI (NCI-H522 lung): > 100 µM
TGI (NCI-H23 lung): > 100 µM
TGI (786-0 renal): > 100 µM
TGI (SK-MEL-28 melanoma): > 100 µM
TGI (HCC-2998 colon): > 100 µM
TGI (RXF 393 renal): > 100 µM
TGI (DMS 114 small cell lung): > 100 µM
TGI (CCRF-CEM leukemia): > 100 µM
TGI (OVCAR-4 ovarian): > 100 µM
TGI (SW-620 colon): > 100 µM
TGI (MALME-3M melanoma): > 100 µM
TGI (A498 renal): > 100 µM
TGI (MOLT-4 leukemia): > 100 µM
TGI (HCT-116 colon): > 100 µM
TGI (NCI-H460 lung): > 100 µM
TGI (SNB-75 CNS): > 100 µM
TGI (SK-MEL-2 melanoma): > 100 µM
TGI (HT29 colon): > 100 µM
TGI (HOP-62 NSCLC): > 100 µM
TGI (CAKI-1 renal): > 100 µM
TGI (SF-268 CNS): > 100 µM
TGI (UACC-257 melanoma): > 100 µM
TGI (KM12 colon): > 100 µM
TGI (UO-31 renal): > 100 µM
TGI (M19-MEL melanoma): > 100 µM
TGI (OVCAR-5 ovarian): > 100 µM
TGI (SF-295 CNS): > 100 µM
TGI (OVCAR-8 ovarian): > 100 µM
TGI (ACHN renal): > 100 µM
TGI (UACC-62 melanoma): > 100 µM
TGI (M14 melanoma): > 100 µM
TGI (TK-10 renal): > 100 µM
TGI (A549 NSCLC): > 100 µM
TGI (SNB-19 CNS): > 100 µM
TGI (SR leukemia): > 100 µM
TGI (SK-OV-3 ovarian): > 100 µM
TGI (HOP-92 NSCLC): > 100 µM
TGI (U251 CNS): > 100 µM
TGI (SK-MEL-5 melanoma): > 100 µM
TGI (DMS 273 small cell lung): > 100 µM
TGI (DLD-1 colon): > 100 µM
TGI (LXFL 529 NSCLC): > 100 µM
TGI (KM20L2 colon): > 100 µM
TGI (SN12C renal): > 100 µM
TGI (EKVX NSCLC): > 100 µM
TGI (NCI-H226 lung): > 100 µM
TGI (SNB-78 CNS): > 100 µM
TGI (XF 498 CNS): > 100 µM
TGI (RXF-631 renal): > 100 µM

C[n+]1ccc(-c2c3nc(c(-c4cc[n+](C)cc4)c4ccc([n-]4)c(-c4cc[n+](C)cc4)c4nc(c(-c5cc[n+](C)cc5)c5ccc2[n-]5)C=C4)C=C3)cc1.[I-].[Zn+2]
GI50 (IGROV1 ovarian): 25.4 µM
TGI (IGROV1 ovarian): 57.8 µM
GI50 (K-562 leukemia): 23 µM
TGI (K-562 leukemia): 59.8 µM
GI50 (SF-539 CNS): 16.2 µM
TGI (SF-539 CNS): 39.9 µM
GI50 (NCI-H522 lung): 1.61 µM
TGI (NCI-H522 lung): 9.88 µM
GI50 (NCI-H23 lung): 26.8 µM
TGI (NCI-H23 lung): 59.2 µM
GI50 (786-0 renal): 8.39 µM
TGI (786-0 renal): 28 µM
GI50 (SK-MEL-28 melanoma): 5.54 µM
TGI (SK-MEL-28 melanoma): 20 µM
GI50 (HCC-2998 colon): 49.6 µM
TGI (HCC-2998 colon): > 100 µM
GI50 (HOP-18 NSCLC): 16.9 µM
TGI (HOP-18 NSCLC): 41.3 µM
GI50 (RXF 393 renal): 3.03 µM
TGI (RXF 393 renal): 7.91 µM
GI50 (DMS 114 small cell lung): 7.11 µM
TGI (DMS 114 small cell lung): 22.6 µM
GI50 (CCRF-CEM leukemia): 14.1 µM
TGI (CCRF-CEM leukemia): 44.5 µM
GI50 (OVCAR-4 ovarian): 2.43 µM
TGI (OVCAR-4 ovarian): 10.4 µM
GI50 (SW-620 colon): 24.1 µM
TGI (SW-620 colon): 45.7 µM
GI50 (MALME-3M melanoma): 18.3 µM
TGI (MALME-3M melanoma): 39.8 µM
GI50 (A498 renal): 8.34 µM
TGI (A498 renal): 31.3 µM
GI50 (MOLT-4 leukemia): 28.4 µM
TGI (MOLT-4 leukemia): > 100 µM
GI50 (HCT-116 colon): 50.5 µM
TGI (HCT-116 colon): > 100 µM
GI50 (COLO 205 colon): 18.3 µM
TGI (COLO 205 colon): 35.8 µM
GI50 (NCI-H460 lung): 23.5 µM
TGI (NCI-H460 lung): 53.5 µM
GI50 (SNB-75 CNS): 12.5 µM
TGI (SNB-75 CNS): 32.8 µM
GI50 (SK-MEL-2 melanoma): 19.1 µM
TGI (SK-MEL-2 melanoma): 47.3 µM
GI50 (HOP-62 NSCLC): 19.9 µM
TGI (HOP-62 NSCLC): 44.2 µM
GI50 (CAKI-1 renal): 20 µM
TGI (CAKI-1 renal): 41.7 µM
GI50 (SF-268 CNS): 11 µM
TGI (SF-268 CNS): 25.9 µM
GI50 (UACC-257 melanoma): 9.61 µM
TGI (UACC-257 melanoma): 30.1 µM
GI50 (KM12 colon): 23.3 µM
TGI (KM12 colon): 69.5 µM
GI50 (UO-31 renal): 17.3 µM
TGI (UO-31 renal): 38.4 µM
GI50 (M19-MEL melanoma): 10.3 µM
TGI (M19-MEL melanoma): 28.3 µM
GI50 (OVCAR-5 ovarian): > 100 µM
TGI (OVCAR-5 ovarian): > 100 µM
GI50 (SF-295 CNS): 38 µM
TGI (SF-295 CNS): > 100 µM
GI50 (OVCAR-8 ovarian): 23.6 µM
TGI (OVCAR-8 ovarian): 61.1 µM
GI50 (ACHN renal): 15.5 µM
TGI (ACHN renal): 36.2 µM
GI50 (UACC-62 melanoma): 27.5 µM
TGI (UACC-62 melanoma): > 100 µM
GI50 (M14 melanoma): 14 µM
TGI (M14 melanoma): 35.5 µM
GI50 (TK-10 renal): 15.2 µM
TGI (TK-10 renal): 38 µM
GI50 (A549 NSCLC): 22.3 µM
TGI (A549 NSCLC): 49.5 µM
GI50 (HL-60(TB) leukemia): 21.5 µM
TGI (HL-60(TB) leukemia): 42 µM
GI50 (SNB-19 CNS): 19.4 µM
TGI (SNB-19 CNS): 45.5 µM
GI50 (SR leukemia): 32.2 µM
TGI (SR leukemia): 94.7 µM
GI50 (SK-OV-3 ovarian): 33 µM
TGI (SK-OV-3 ovarian): 69.5 µM
GI50 (U251 CNS): 22 µM
TGI (U251 CNS): 52.8 µM
GI50 (SK-MEL-5 melanoma): 15.9 µM
TGI (SK-MEL-5 melanoma): 37.4 µM
GI50 (DMS 273 small cell lung): 33.7 µM
TGI (DMS 273 small cell lung): > 100 µM
GI50 (DLD-1 colon): 29.3 µM
TGI (DLD-1 colon): 84.3 µM
GI50 (HCT-15 colon): > 100 µM
TGI (HCT-15 colon): > 100 µM
GI50 (LXFL 529 NSCLC): 20.1 µM
TGI (LXFL 529 NSCLC): 43 µM
GI50 (KM20L2 colon): 23.1 µM
TGI (KM20L2 colon): > 100 µM
GI50 (SN12C renal): 19.7 µM
TGI (SN12C renal): 43.3 µM
GI50 (EKVX NSCLC): 11.1 µM
TGI (EKVX NSCLC): 47.6 µM
GI50 (NCI-H226 lung): 14.9 µM
TGI (NCI-H226 lung): 48.3 µM
GI50 (OVCAR-3 ovarian): 7.02 µM
TGI (OVCAR-3 ovarian): 28.1 µM
GI50 (SNB-78 CNS): 23.3 µM
TGI (SNB-78 CNS): 69.6 µM
GI50 (RXF-631 renal): 17.1 µM
TGI (RXF-631 renal): 46.8 µM
GI50 (RPMI-8226 leukemia): 32.1 µM
TGI (RPMI-8226 leukemia): > 100 µM
GI50 (LOX IMVI melanoma): 82.9 µM
TGI (LOX IMVI melanoma): > 100 µM
